Like-named read-outs stand apart in the source and are kept apart here.

A short description of data set [1]: Nephelometry kinetic solubility screen in PBS. The format is physicochemical.
The test system of another data set is Mabs ATCC19977. As to the kind of experiment: MBC determination by CFU counting.
Data set [2] is described as follows: Plasma stability, murine plasma. The settings on record: 1 μM, 120 min. The format is in vitro ADME.
For data set [3] the following is noted: oral administration, mice; cited from earlier work.
For data set [4], the system named is HEP 93 liver cancer cell line. The settings on record: cited from earlier work.
For another data set, the system named is Mabs. Conditions: enantiomers; cited from earlier work.
For data set [5] the following is noted: oral administration, rats; cited from earlier work.

On to `O=C(N[C@H](Cc1ccccc1)C(=O)Nc1ccccc1N1CC[S+]([O-])CC1)c1ccccc1F` [Compound 15], for which the “solubility relative to MMV688845” value in data set [1] is recorded as “approximately 5 times”. The “MBC99 as multiple of MIC90” value against Mabs ATCC19977 stood at 2 X MIC90.
On to `O=C(N[C@H](Cc1ccccc1)C(=O)Nc1ccccc1N1CCS(=O)(=O)CC1)c1cccs1` [Compound 20], for which the “MBC99 as multiple of MIC90” value in the data set on Mabs ATCC19977 is given as 2 X MIC90.
In the case of `O=C(N[C@H](Cc1ccccc1)C(=O)Nc1ccccc1N1CCS(=O)(=O)CC1)c1ccccc1F` [Compound 24], the “stability in murine plasma” value in data set [2] is recorded as “improved stability”.
As for `O=C(N[C@H](Cc1ccccc1)C(=O)Nc1ccccc1N1CCOCC1)c1cccs1` [MMV688845, Nα-2-thiophenoyl-D-phenylalanine-2-morpholinoanilide], the drug plasma levels result in data set [3] and in data set [5] was “low drug plasma levels” each time. Besides, the “cytotoxicity HEP 93” value in data set [4] is recorded as “non-cytotoxic”. The “stability in murine plasma” value in data set [2] is listed as “stronger decline in concentration than compound 24”. In addition, in the data set on Mabs, the “activity against Mabs” value is given as “shows activity”. In the data set on Mabs ATCC19977, the “MBC99 as multiple of MIC90” value turned out to be 8 X MIC90. Further, the “reduction of viable bacteria” value in the data set with Mabs ATCC19977 (at 6.25 μM (derivatives: 6.25 μM and higher)) is “no reduction”.

Values taken from PMC10586324 (Journal of medicinal chemistry, 2023).
